In publication PMC12392461, “Beyond Estrogenicity: A Comparative Assessment of Bisphenol A and Its Alternatives in In Vitro Assays Questions Safety of Replacements” (Environmental Science & Technology, 2025):
Read-outs that look alike come from different tables or passages of the source.

What was measured:
Estrogen Receptor ERα [1] = biological target: T1, Estrogen Receptor ERα (Homo sapiens, UniProt P03372); assay: cell-based; conditions: for EC10, ERα (M): 10% of maximum effect of E2; for EC10, linear transformed / EC10, linear / EC10: in M; for SR-ScoreERα: SR-Score, sigma k=1, x=5; for Efficacy % / EC10 / REPBPA: This Study; for EC10: ERα; for REPBPA: relative estrogenic potency vs BPA; for Specificity ratio (SRbaseline) SRERα: against baseline cytotoxicity; for log(1/EC10) ERα: input of the ToxPi score, values up to 1.00; for Relative effect potency REPERα: relative to BPA; for REPBPA,ERα (relative effect potency in relation to BPA): EC10,BPA/EC10,BPx
T1 sequence (P03372 311-547 limits assumed): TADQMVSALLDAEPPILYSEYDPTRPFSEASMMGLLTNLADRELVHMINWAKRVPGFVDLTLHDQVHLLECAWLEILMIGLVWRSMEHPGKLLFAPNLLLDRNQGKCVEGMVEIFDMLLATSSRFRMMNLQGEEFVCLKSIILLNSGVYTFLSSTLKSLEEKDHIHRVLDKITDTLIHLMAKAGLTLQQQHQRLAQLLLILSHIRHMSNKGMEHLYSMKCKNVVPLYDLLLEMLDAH
Method in brief: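 ERα-UAS-bla GripTite and PPARγ-UAS-bla β-lactamase reporter cells were seeded and held 24 h at 37 °C, 5% CO₂ before dosing. EC10 values used only concentrations below the IC10 from IncuCyte confluency. Emax% is the log-logistic curve maximum relative to the reference chemical's maximum.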

[2] = Octanol-water partition constant (log Kow) measurement, Sirius T3 potentiometric log P; type: physicochemical; conditions: experimental, this study
Procedure: Physicochemical properties provide input parameters for the baseline toxicity model. Acidity constants (pK a) and octanol–water partition constants of the neutral species (K ow) were measured with a Sirius T instrument from Pion Inc. (Sussex, UK) (Text S1.2 and Table S1). A detailed description of the pK a and K ow measurements can be found in literature. , […]
S1.2: pKa and log Kow measurements […]
titrator (Pion Inc., Sussex, U.K.). […]
UV absorbance. For log Kow measurement, approximately 1 mg of test chemical was added to a sample vial and the measurement was done automatically via the potentiometric log P protocol. Briefly, each compound is titrated thrice in an immiscible biphasic system of octanol and phosphate buffer solution and pH is continuously recorded. The shift in p Ka -values was used to estimate the log Kow values.2, 3 Data processing was performed with Sirius T3 Refine software (version 2.0.0.0.), and the final p Ka and log Kow values were calculated as the average of three titrations. To ensure reproducibility, measurements were conducted on at least two

Estrogen Receptor ERα [3] = biological target: T1, Estrogen Receptor ERα; assay: aCYP oxidation followed by ERα-UAS-bla GripTite assay (TK-Ratio of effect); type: cell-based; conditions: for EC10, after oxidation / EC10, before oxidation: ERα, in M; for EC10, after oxidation: after abiotic CYP catalyst; for TKERα: TKERα-Ratio
Procedure: Cell culture conditions and bioassay protocols including response detection are provided in Text S2.1–2.4 and Table S3. − Cell viability was determined from cell confluency using an IncuCyte S3 Live-Cell Analysis System (Sartorius AG, Essen, Germany) before and after exposure, except for SH-SY5Y cells (live–dead staining with Nuclear Green LcS1 and propidium iodide, Abcam, UK). For metabolic activation experiments, cell viability was assessed using the ToxBLAzer DualScreen Kit (Thermo Fisher Scientific) to capture the remaining toxicity in ERα-UAS-bla GripTite after treatment with the aCYP catalyst (details in Text S2.4). […]
The TK-Ratio method was used to evaluate the impact of abiotic CYP oxidation on the potency of tested compounds. […]
For experiments with the preceding aCYP activation, ERα cell viability was additionally calculated from the readout of the ToxBLAzer reagent. The ToxBLAzer assay was conducted following the manufacturer's instructions (Thermo Fisher, Waltham, MA, U.S.).13 Fluorescence intensity was recorded at the start of the assay ( Fwavelength(0h)) and after a 2-hour incubation at […]
Cell viability was assessed based on the red fluorescence signal at 665 nm, applying eq. S11 for normalization.
Cell viability = F665nm(2h, sample)-F665nm(0h, average cell-free) (S11) F665nm(2h, average unexposed)-F665nm(0h, average cell-free) […]
the specific endpoint to avoid artifacts from cytotoxicity burst. 15
S2.5: Concentration-response curves (CRCs)
To avoid bias from cytotoxicity burst at higher concentrations, all concentrations exceeding the IC10 for cytotoxicity were excluded in the CRC modeling of effects but otherwise cytotoxicity and effects were fitted with the same model equations (response stands for cytotoxicity or effect). For ERα, AhR, ARE and PPARγ preferably a linear model was fitted to the linear portion of CRC up to maximum 30% effect (eq. S12),16 but in some cases it was necessary to choose a sigmoidal log-concentration-response model, specifically a log-logistic model (eq. S13), to derive effect concentrations and cytotoxicity. For mitochondrial toxicity and neurotoxicity, the […]
are not reporter gene assays. Common practice when using log-logistic models, e.g., the model implemented in tcpl package in R,17, 18 is that the minima and maxima are also fitted and only median effect concentrations AC50 are derived. […]
concentrations (EC10) for both linear and log-sigmoidal CRCs to allow absolute comparisons at the same effect level and for TR and SR -analysis. This was done using the AutomatedBioassayScreening19 published by Braun et al.,20 which also included an algorithm to choose the best model between eq. S12 and eq. S13.
Response (%) = slope × C (S12) […]
logEC =logEC − 1 ∙log (max−min − 100%) (S14)

[4] = Bioassay ERα, dosing range high
[5] = Bioassay ERα, dosing range high, linear model fit
[6] = Bioassay ERα, dosing range high, log-logistic model fit
[7] = Bioassay ERα, dosing range low, linear model fit
[8] = Bioassay ERα, dosing range low, log-logistic model fit
[9] = against experimental cytotoxicity
[10] = read-out: Emax%ERα, maximum efficacy relative to E2
[11] = Bioassay ERα, dosing range all, linear model fit
[12] = Bioassay ERα, dosing range all, log-logistic model fit

SMILES	EC10, ERα (M) (Estrogen Receptor ERα [1])	EC10, linear transformed (Estrogen Receptor ERα [1]; [4])	EC10, linear (Estrogen Receptor ERα [1]; [5])	logEC10 (Estrogen Receptor ERα [1]; [6])	EC10, linear transformed (Estrogen Receptor ERα [1]; Bioassay ERα, dosing range low)	EC10, linear (Estrogen Receptor ERα [1]; [7])	logEC10 (Estrogen Receptor ERα [1]; [8])	SR-ScoreERα (Estrogen Receptor ERα [1])	Efficacy % (Estrogen Receptor ERα [1])	EC10 (Estrogen Receptor ERα [1])	REPBPA (Estrogen Receptor ERα [1])	Specificity ratio (SRbaseline) SRERα (Estrogen Receptor ERα [1])	Specificity ratio (SRcytotoxicity) SRERα (Estrogen Receptor ERα [1]; [9])	EC10, ERα (Estrogen Receptor ERα [1]; effect)	log(1/EC10) ERα (Estrogen Receptor ERα [1])	Relative effect potency REPERα (Estrogen Receptor ERα [1])	log Kow used [2]	EC10, after oxidation (Estrogen Receptor ERα [3]; Table S10)	EC10, before oxidation (Estrogen Receptor ERα [3]; Table S10)	TKERα (Estrogen Receptor ERα [3]; Table S10)	also measured
COC(=O)C(c1ccc(O)cc1)c1ccc(O)cc1 [Bz, Methyl bis(4-hydroxyphenyl)acetate]	1.06 × 10^–6 M	1.23E-08	7.84E-07	-6.83	9.90E-07	1.06E-06	-6.00	1.00	32.40%	1.06E-06	3.49E-01	245.73	956.87	1060 nM	0.76	0.35	2.06	1.36E-06	9.90E-07	0.7263	SRcytotoxicity (ERα) (Estrogen Receptor ERα [1]; IC10/EC10): 957; Emax (Estrogen Receptor ERα [1]; read-out: Emax%ERα): 32%
CC(C)(c1ccc(O)cc1)c1ccc(O)cc1 [BPA, 4,4'-(Propane-2,2-diyl)diphenol, reference compound]	3.70 × 10^–7 M	1.46E-07	1.81E-07	-7.06	3.70E-07	2.69E-07	-6.43	1.00	37.53%	3.70E-07	1.00E+00	31.86		370 nM	0.82	1.00	4.25	4.48E-07	3.70E-07	0.827	EC10, ERα (Estrogen Receptor ERα [1]): 370 nM; SRcytotoxicity (ERα) (Estrogen Receptor ERα [1]; human, 24 h): 115; Specificity ratio (SRcytotoxicity) SRERα (Estrogen Receptor ERα [1]; human, 24 h): 115.28; times less potent than the reference estradiol (E2) (Estrogen Receptor ERα [1]; ratio of EC10): 18700; Emax (Estrogen Receptor ERα [1]; read-out: Emax%ERα): 38%; estrogenic activity after aCYP oxidation (Estrogen Receptor ERα [3]): remained unchanged or decreased; EC10, after oxidation (Estrogen Receptor ERα [3]; Table S11): 3.06E-07; EC10, before oxidation (Estrogen Receptor ERα [3]; Table S11): 3.74E-07; TKERα (Estrogen Receptor ERα [3]; Table S11): 1.22
O=S(=O)(c1ccc(O)cc1)c1ccccc1O [2,4-BPS, 2,4'-Dihydroxydiphenyl sulfone]	1.98 × 10^–5 M							1.00				27.68	21.81	19800 nM	0.60	0.0187	1.90		3.59E-05		times less potent than BPS (ERα) (Estrogen Receptor ERα [1]): 10; REPBPA,ERα (relative effect potency in relation to BPA) (Estrogen Receptor ERα [1]): 0.019; EC10, linear transformed (Estrogen Receptor ERα [1]; ERα bioassay, dosing range all): 3.59E-05; EC10, linear (Estrogen Receptor ERα [1]; ERα bioassay, dosing range all, linear model): 5.15E-05; logEC10 (Estrogen Receptor ERα [1]; ERα bioassay, dosing range all, log-logistic model): -4.70; ERα activation (Estrogen Receptor ERα [1]; at noncytotoxic concentrations): did not activate ERα at noncytotoxic concentrations; Emax (Estrogen Receptor ERα [1]; [10]): 19%
Oc1ccc(Sc2ccc(O)cc2)cc1 [BPT, 4,4'-Thiodiphenol]	7.27 × 10^–7 M							1.00		7.27E-07	5.09E-01			727 nM	0.78		3.29	1.15E-06	2.87E-07	0.2502	EC10, linear transformed (Estrogen Receptor ERα [1]; Bioassay ERα, dosing range all): 2.87E-07; EC10, linear (Estrogen Receptor ERα [1]; [11]): 7.27E-07; logEC10 (Estrogen Receptor ERα [1]; [12]): -6.54; EC10, after oxidation (Estrogen Receptor ERα [3]; Table S11): 2.70E-06; EC10, before oxidation (Estrogen Receptor ERα [3]; Table S11): 2.28E-06; TKERα (Estrogen Receptor ERα [3]; Table S11): 0.85
O=S(=O)(c1ccc(O)cc1)c1ccc(O)cc1 [BPS, 4,4'-Sulfonyldiphenol]	1.43 × 10^–6 M	1.15E-06	1.20E-06	-5.97					65.69%	1.43E-06	2.59E-01			1430 nM	0.75		1.97	1.48E-06	1.65E-06	1.115	EC10, linear transformed (Estrogen Receptor ERα [1]; ERα bioassay, dosing range low): 1.65E-06; EC10, linear (Estrogen Receptor ERα [1]; ERα bioassay, dosing range low, linear model): 1.43E-06; logEC10 (Estrogen Receptor ERα [1]; ERα bioassay, dosing range low, log-logistic model): -5.76; Emax (Estrogen Receptor ERα [1]; [10]): 66%
O=C(OCc1ccccc1)c1ccc(O)cc1 [BzPB, Benzyl 4-hydroxybenzoate]	3.02 × 10^–6 M							1.00	53.46%	3.02E-06	1.23E-01	5.49	13.93	3020 nM	0.70	0.12	3.30	4.95E-06	3.07E-06	0.6192	EC10, linear transformed (Estrogen Receptor ERα [1]; Bioassay ERα, dosing range all): 3.07E-06; EC10, linear (Estrogen Receptor ERα [1]; [11]): 1.96E-06; logEC10 (Estrogen Receptor ERα [1]; [12]): -5.52; Emax (Estrogen Receptor ERα [1]; read-out: Emax%ERα): 53%
CCC(C)(c1ccc(O)cc1)c1ccc(O)cc1 [BPB, 4,4'-(Butane-2,2-diyl)diphenol]	1.35 × 10^–7 M	5.57E-08	8.29E-08	-7.27	1.07E-07	1.35E-07	-6.97	1.00	23.67%	1.35E-07	2.74E+00	66.42	154.61	135 nM	0.88	2.74	3.72	3.59E-07	1.07E-07	0.2982	REPBPA,ERα (relative effect potency in relation to BPA) (Estrogen Receptor ERα [1]): 3; Emax (Estrogen Receptor ERα [1]; [10]): 24%
